Test results from patent publication US12157730B2, “Heteroaryl derivative, method for producing same, and pharmaceutical composition comprising same as effective component” (VORONOI INC., priority 2019, dated 2024).

Target: T1, Ba/F3 cell EGFR Exon20 ins NPH (Homo sapiens, UniProt P00533, INS773NPH)
T1 construct: expressed in transfected cells; host or cells: Ba/F3
Experiment: Ba/F3 cell proliferation suppression, EGFR Exon20 ins NPH
Type: cell-based
Details: GI50 class; Ba/F3 cell line with NPH inserted at Exon20 of EGFR; 72 hours
Method in brief: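 Cells (3000–5000/well) plated 24 h before compound, 12-point 3-fold dilutions at 0.3 nM to 50 um final; Ba/F3 lines grown with 5 ng/ml IL-3. Viability by CellTiter-Glo luminescence after 72 h, growth ratio vs control, GI50 from curves; triplicate.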

Structure (SMILES) | Ba/F3 (NPH) Activity
C=CC(=O)Nc1cc(Nc2cc(N3OCC[C@@H]3c3ccc(Cl)c(F)c3)ncn2)c(OC)cc1N1CCC(N2CCN(C(C)C)CC2)CC1 [compound 708, N-(5-((6-((R)-3-(4-chloro-3-fluorophenyl)isoxazolidine-2-yl)pyrimidine-4-yl)amino)-2-(4-(4-isopropylpiperazine-1-yl)piperidine-1-yl)-4-methoxyphenyl) acrylamide] | A (GI50 < 50 nM)
C=CC(=O)Nc1cc(Nc2cc(N3OCC[C@@H]3c3cc(F)cc(Cl)c3)ncn2)c(OC)cc1N1CCC(O)CC1 [compound 591, N-(5-((6-((R)-3-(3-chloro-5-fluorophenyl)isoxazolidine-2-yl)pyrimidine-4-yl)amino)-2-(4-hydroxypiperidine-1-yl)-4-methoxyphenyl) acrylamide] | A (GI50 < 50 nM)
C=CC(=O)Nc1cc(Nc2cc(N3OCC[C@@H]3c3cccc(F)c3F)ncn2)c(OC)cc1N1CCC(N2CCN(C)CC2)CC1 [compound 921, N-(5-((6-((R)-3-(2,3-difluorophenyl)isoxazolidine-2-yl)pyrimidine-4-yl)amino)-4-methoxy-2-(4-(4-methylpiperazine-1-yl)piperidine-1-yl)phenyl) acrylamide] | A (GI50 < 50 nM)
C=CC(=O)Nc1cc(Nc2cc(N3OCC[C@@H]3c3ccc(Cl)c(F)c3)ncn2)c(OC)cc1N1CCC(N2CCN(C3CCC3)CC2)CC1 [Example 71, N-(5-((6-((R)-3-(4-chloro-3-fluorophenyl)isoxazolidine-2-yl)pyrimidine-4-yl)amino)-2-(4-(4-cyclobutylpiperazine-1-yl)piperidine-1-yl)-4-methoxyphenyl) acrylamide] | A (GI50 < 50 nM)
C=CC(=O)Nc1cc(Nc2cc(N3OCC[C@@H]3Cc3cccc(Cl)c3C)ncn2)c(OC)cc1N1CCC(N2C[C@@H]3C[C@H]2CO3)CC1 [compound 1029, N-(2-(4-((1S,4S)-2-oxa-5-azabicyclo [2.2.1]heptane-5-yl)piperidine-1-yl)-5-((6-((S)-3-(3-chloro-2-methylbenzyl)isoxazolidine-2-yl)pyrimidine-4-yl)amino)-4-methoxyphenyl) acrylamide] | A (GI50 < 50 nM)
C=CC(=O)Nc1cc(Nc2cc(N3OCC[C@@H]3c3ccc(F)c(Cl)c3)ncn2)c(OC)cc1N(C)CCOC [compound 904, N-(5-((6-((R)-3-(3-chloro-4-fluorophenyl)isoxazolidine-2-yl)pyrimidine-4-yl)amino)-4-methoxy-2-((2-methoxyethyl)(methyl)amino)phenyl) acrylamide] | A (GI50 < 50 nM)
C=CC(=O)Nc1cc(Nc2cc(N3OCC[C@@H]3Cc3ccccc3)ncn2)c(OC)cc1N1CCN(C(C)C)CC1 [compound 954, N-(5-((6-((S)-3-benzylisoxazolidine-2-yl)pyrimidine-4-yl)amino)-2-(4-isopropylpiperazine-1-yl)-4-methoxyphenyl) acrylamide] | A (GI50 < 50 nM)
C=CC(=O)Nc1cc(Nc2cc(N3OCC[C@@H]3c3cc(F)cc(F)c3)ncn2)c(OC)cc1N1CCC(N2CCN(C)CC2=O)CC1 [compound 722, N-(5-((6-((R)-3-(3,5-difluorophenyl)isoxazolidine-2-yl)pyrimidine-4-yl)amino)-4-methoxy-2-(4-(4-methyl-2-oxopiperazine-1-yl)piperidine-1-yl)phenyl)acrylamide] | B (50 nM ≤ GI50 < 500 nM)
C=CC(=O)Nc1cc(Nc2cc(N3OCC[C@@H]3c3ccc(F)cc3F)ncn2)c(OC)cc1N1CCC(N2C[C@H]3C[C@@H]2CN3CC)CC1 [compound 425, N-(5-((6-((R)-3-(2,4-difluorophenyl)isoxazolidine-2-yl)pyrimidine-4-yl)amino)-2-(4-((1R,4R)-5-ethyl-2,5-diazabicyclo [2.2.1]heptane-2-yl)piperidine-1-yl)-4-methoxyphenyl) acrylamide] | A (GI50 < 50 nM)
C=CC(=O)Nc1cc(Nc2cc(N3OCC[C@@H]3c3cccc(F)c3)ncn2)c(OC)cc1N1CCC(N2CCN(C3CC3)CC2)CC1 [Example 64, N-(2-(4-(4-cyclopropylpiperazine-1-yl)piperidine-1-yl)-5-((6-((R)-3-(3-fluorophenyl)isoxazolidine-2-yl)pyrimidine-4-yl)amino)-4-methoxyphenyl) acrylamide] | A (GI50 < 50 nM)
C=CC(=O)Nc1cc(Nc2cc(N3OCC[C@@H]3c3cc(F)ccc3F)ncn2)c(OC)cc1N1CCC(N2C[C@@H](C)N(C3CC3)C[C@@H]2C)CC1 [Example 174, N-(2-(4-((2S,5R)-4-cyclopropyl-2,5-dimethylpiperazine-1-yl)piperidine-1-yl)-5-((6-((R)-3-(2,5-difluorophenyl)isoxazolidine-2-yl)pyrimidine-4-yl)amino)-4-methoxyphenyl) acrylamide] | A (GI50 < 50 nM)
C=CC(=O)Nc1cc(Nc2cc(N3OCC[C@@H]3c3cc(F)cc(F)c3)ncn2)cc(N2CCN(C)CC2)c1 [compound 633, N-(3-((6-((R)-3-(3,5-difluorophenyl)isoxazolidine-2-yl)pyrimidine-4-yl)amino)-5-(4-methylpiperazine-1-yl)phenyl)acrylamide] | B (50 nM ≤ GI50 < 500 nM)
C=CC(=O)Nc1cc(Nc2cc(N3OCC[C@@H]3c3cccc(F)c3)ncn2)c(OC)cc1N1C[C@H]2C[C@@H]1CO2 [compound 833, N-(2-((1R,4R)-2-oxa-5-azabicyclo[2.2.1]heptane-5-yl)-5-((6-((R)-3-(3-fluorophenyl)isoxazolidine-2-yl)pyrimidine-4-yl)amino)-4-methoxyphenyl) acrylamide] | A (GI50 < 50 nM)
C=CC(=O)Nc1cc(Nc2cc(N3OCC[C@@H]3c3ccc(F)c(F)c3)ncn2)c(OC)cc1N1CCC(N2CCN(CCC)CC2)CC1 [compound 547, N-(5-((6-((R)-3-(3,4-difluorophenyl)isoxazolidine-2-yl)pyrimidine-4-yl)amino)-4-methoxy-2-(4-(4-propylpiperazine-1-yl)piperidine-1-yl)phenyl) acrylamide] | A (GI50 < 50 nM)
C=CC(=O)Nc1cc(Nc2cc(N3OCC[C@@H]3c3cccc(F)c3F)ncn2)c(OC)cc1N1CC2CCC(C1)O2 [compound 887, N-(2-(8-oxa-3-azabicyclo[3.2.1]octan-3-yl)-5-((6-((R)-3-(2,3-difluorophenyl)isoxazolidine-2-yl)pyrimidine-4-yl)amino)-4-methoxyphenyl) acrylamide] | A (GI50 < 50 nM)
C=CC(=O)Nc1cc(Nc2cc(N3OCC[C@@H]3c3cccc(Cl)c3F)ncn2)c(OC)cc1N(C)CCN(C)C [compound 746, N-(5-((6-((R)-3-(3-chloro-2-fluorophenyl)isoxazolidine-2-yl)pyrimidine-4-yl)amino)-2-((2-(dimethylamino)ethyl)(methyl)amino)-4-methoxyphenyl) acrylamide] | A (GI50 < 50 nM)
C=CC(=O)Nc1cc(Nc2cc(N3OCC[C@@H]3c3ccc(Cl)cc3F)ncn2)c(OC)cc1N1CC[C@H](N2CCOCC2)C1 [compound 407, N-(5-((6-((R)-3-(4-chloro-2-fluorophenyl)isoxazolidine-2-yl)pyrimidine-4-yl)amino)-4-methoxy-2-((S)-3-morpholinopyrolidine-1-yl)phenyl)acrylamide] | B (50 nM ≤ GI50 < 500 nM)
C=CC(=O)Nc1cc(Nc2cc(N3OCC[C@@H]3c3cc(F)ccc3F)ncn2)c(OC)cc1N1CCC(N2CCO[C@@H](C)C2)CC1 [compound 821, N-(5-((6-((R)-3-(2,5-difluorophenyl)isoxazolidine-2-yl)pyrimidine-4-yl)amino)-4-methoxy-2-(4-((S)-2-methylmorpholino)piperidine-1-yl)phenyl) acrylamide] | A (GI50 < 50 nM)
C=CC(=O)Nc1cc(Nc2cc(N3OCC[C@@H]3c3cccc(Cl)c3)ncn2)c(OC)cc1N1CC[C@@H](N(C)C)C1 [compound 469, N-(5-((6-((R)-3-(3-chlorophenyl)isoxazolidine-2-yl)pyrimidine-4-yl)amino)-2-((R)-3-(dimethylamino)pyrolidine-1-yl)-4-methoxyphenyl) acrylamide] | A (GI50 < 50 nM)
C=CC(=O)Nc1cc(Nc2cc(N3OCC[C@@H]3c3ccc(F)cc3F)ncn2)c(OC)cc1N1CCN(C(C)C)CC1 [compound 346, N-(5-((6-((R)-3-(2,4-difluorophenyl)isoxazolidine-2-yl)pyrimidine-4-yl)amino)-2-(4-isopropylpiperazine-1-yl)-4-methoxyphenyl) acrylamide] | A (GI50 < 50 nM)
C=CC(=O)Nc1cc(Nc2cc(N3OCC[C@@H]3Cc3cccc(Cl)c3Cl)ncn2)c(OC)cc1N1CCN(CC)CC1 [compound 1008, N-(5-((6-((S)-3-(2,3-dichlorobenzyl)isoxazolidine-2-yl)pyrimidine-4-yl)amino)-2-(4-ethylpiperazine-1-yl)-4-methoxyphenyl) acrylamide] | A (GI50 < 50 nM)
C=CC(=O)Nc1cc(Nc2cc(N3OCC[C@@H]3Cc3ccccc3)ncn2)c(OC)cc1N1CCC(N2CCN(C3CC3)CC2)CC1 [compound 955, N-(5-((6-((S)-3-benzylisoxazolidine-2-yl)pyrimidine-4-yl)amino)-2-(4-(4-cyclopropylpiperazine-1-yl)piperidine-1-yl)-4-methoxyphenyl) acrylamide] | A (GI50 < 50 nM)
C=CC(=O)Nc1cc(Nc2cc(N3OCC[C@@H]3c3cccc(F)c3)ncn2)c(OC)cc1-n1ccnc1C [compound 861, N-(5-((6-((R)-3-(3-fluorophenyl)isoxazolidine-2-yl)pyrimidine-4-yl)amino)-4-methoxy-2-(2-methyl-1H-imidazole-1-yl)phenyl)acrylamide] | B (50 nM ≤ GI50 < 500 nM)
